Patent US20260262643A1, “HERBICIDAL BENZOXAZINES” (FMC CORPORATION, priority 2022, published 2026)

How the values were obtained:
foxtail, giant [1] = experiment: Test C postemergence; type: in vivo, Setaria faberi; settings: 10 days, 0 to 100 scale (0 no effect, 100 complete control)
Excerpt: (§1) Seeds of plant species selected from barnyardgrass (Echinochloa crusgalli), blackgrass (Alopecurus myosuroides), corn (Zea mays), foxtail, giant (giant foxtail, Setaria faberi), green foxtail (Setaria viridis), goosegrass (Eleusine indica), kochia (Bassia scoparia), oat, wild (wild oat, Avena fatua), pigweed, palmer (palmer amaranth, palmer pigweed, Amaranthus palmeri), Pigweed, Redroot (redroot pigweed, Amaranthus retroflexus), ragweed (common ragweed, Ambrosia artemisiifolia), ryegrass, Italian ([…] ryegrass, Lolium multiflorum), soybean (Glycine max), and wheat (Triticum aestivum) were planted into a blend of loam soil and sand and treated preemergence with a directed soil spray using test chemicals formulated in a non-phytotoxic solvent mixture which included a surfactant. At the same time, plants selected from these crops and weed species and also galium (catchweed bedstraw, Galium aparine) and horseweed (Erigeron canadensis) were planted in pots containing the same blend of loam soil and sand and treated with postemergence applications of test chemicals formulated in the same manner. Plants ranged in height from 2 to 10 cm and were in the one- to two-leaf stage for the postemergence treatment. Treated plants and untreated controls were maintained in a greenhouse for 10 days, after which time all treated plants were compared to untreated controls and visually evaluated for injury. Plant response ratings, summarized in Table C, are based on a 0 to 100 scale where 0 is no effect and 100 is complete control. A dash (-) response means no test result.

soybean [2] = experiment: Test C postemergence; type: in vivo, Glycine max; settings: 10 days, 0 to 100 scale (0 no effect, 100 complete control)
How it was run: (§2)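 Seeds in loam–sand blend received preemergence directed soil spray of test chemicals in non-phytotoxic solvent with surfactant; postemergence treatment was applied at one- to two-leaf stage (2–10 cm). After 10 days in greenhouse, injury rated visually versus untreated controls, 0 (no effect) to 100 (complete control).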

blackgrass [3] = experiment: Test C preemergence; type: in vivo, Alopecurus myosuroides
How it was run: as §2

barnyardgrass [4] = experiment: Test C postemergence; type: in vivo, Echinochloa crusgalli; settings: 10 days, 0 to 100 scale (0 no effect, 100 complete control)
How it was run: as §2

ryegrass, Italian [5] = experiment: Test C postemergence; type: in vivo, Lolium multiflorum; settings: 10 days, 0 to 100 scale (0 no effect, 100 complete control)
How it was run: as §2

ragweed [6] = experiment: Test C preemergence; type: in vivo, Ambrosia artemisiifolia
How it was run: as §2

rice = experiment: Test D flooded paddy test; type: in vivo, Oryza sativa; settings: 250 g ai/ha, applied to paddy water, visual rating after 13 to 14 days, scale 0 to 100 (0 no effect, 100 complete control)
How it was run: (§3)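 Compounds go straight into paddy water over 2-leaf plants in pots flooded to 3 cm. Greenhouse holding lasts 13 to 14 days. Injury is scored by eye against controls from 0 (none) to 100 (complete control).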

wheat [7] = experiment: Test C postemergence; type: in vivo, Triticum aestivum; settings: 10 days, 0 to 100 scale (0 no effect, 100 complete control)
How it was run: as §2

barnyardgrass [8] = experiment: Test D flooded paddy test; type: in vivo, Echinochloa crus-galli; settings: 250 g ai/ha, applied to paddy water, visual rating after 13 to 14 days, scale 0 to 100 (0 no effect, 100 complete control)
How it was run: as §3

galium = experiment: Test C postemergence; type: in vivo, Galium aparine; settings: 10 days, 0 to 100 scale (0 no effect, 100 complete control)
How it was run: as §2

ducksalad = experiment: Test D flooded paddy test; type: in vivo, Heteranthera limosa; settings: 250 g ai/ha, applied to paddy water, visual rating after 13 to 14 days, scale 0 to 100 (0 no effect, 100 complete control)
How it was run: as §3

ragweed [9] = experiment: Test C postemergence; type: in vivo, Ambrosia artemisiifolia; settings: 10 days, 0 to 100 scale (0 no effect, 100 complete control)
How it was run: as §2

kochia [10] = experiment: Test C postemergence; type: in vivo, Bassia scoparia; settings: 10 days, 0 to 100 scale (0 no effect, 100 complete control)
How it was run: as §2

barnyardgrass [11] = experiment: Test C preemergence; type: in vivo, Echinochloa crusgalli
How it was run: as §2

oat, wild [12] = experiment: Test C postemergence; type: in vivo, Avena fatua; settings: 10 days, 0 to 100 scale (0 no effect, 100 complete control)
How it was run: as §2

corn [13] = experiment: Test C postemergence; type: in vivo, Zea mays; settings: 10 days, 0 to 100 scale (0 no effect, 100 complete control)
How it was run: as §2

soybean [14] = experiment: Test C preemergence; type: in vivo, Glycine max
How it was run: as §2

sedge, umbrella = experiment: Test D flooded paddy test; type: in vivo, Cyperus difformis; settings: 250 g ai/ha, applied to paddy water, visual rating after 13 to 14 days, scale 0 to 100 (0 no effect, 100 complete control)
How it was run: as §3

foxtail, giant [15] = experiment: Test C preemergence; type: in vivo, Setaria faberi
Excerpt: as §1

pigweed, palmer [16] = experiment: Test C postemergence; type: in vivo, Amaranthus palmeri; settings: 10 days, 0 to 100 scale (0 no effect, 100 complete control)
How it was run: as §2

oat, wild [17] = experiment: Test C preemergence; type: in vivo, Avena fatua
How it was run: as §2

horseweed = experiment: Test C postemergence; type: in vivo, Erigeron canadensis; settings: 10 days, 0 to 100 scale (0 no effect, 100 complete control)
How it was run: as §2

corn [18] = experiment: Test C preemergence; type: in vivo, Zea mays
How it was run: as §2

wheat [19] = experiment: Test C preemergence; type: in vivo, Triticum aestivum
How it was run: as §2

blackgrass [20] = experiment: Test C postemergence; type: in vivo, Alopecurus myosuroides; settings: 10 days, 0 to 100 scale (0 no effect, 100 complete control)
How it was run: as §2

ryegrass, Italian [21] = experiment: Test C preemergence; type: in vivo, Lolium multiflorum
How it was run: as §2

kochia [22] = experiment: Test C preemergence; type: in vivo, Bassia scoparia
How it was run: as §2

pigweed, palmer [23] = experiment: Test C preemergence; type: in vivo, Amaranthus palmeri
How it was run: as §2

[24] = 500 g ai/ha, preemergence, 0 to 100 scale (0 no effect, 100 complete control)
[25] = Preemergence, 125 g ai/ha, 0 to 100 scale, 0 no effect, 100 complete control

## CCc1ncn(-c2cc(C(=O)N3CC(C(F)(F)F)Oc4c(C)cccc43)ccn2)n1 (stereo not shown) [Compound 318]
foxtail, giant [1]; 500 g ai/ha, postemergence
  Plant response rating, Foxtail, Giant: 90
foxtail, giant [1]; Postemergence, 125 g ai/ha
  Plant response rating, Foxtail, Giant: 90
Soybean [2]; 500 g ai/ha, postemergence
  Plant response rating, Soybean: 100
Soybean [2]; Postemergence, 125 g ai/ha
  Plant response rating, Soybean: 100
Blackgrass [3]; [24]
  Blackgrass plant response rating: 90
Blackgrass [3]; [25]
  Plant response rating, Blackgrass: 80
Barnyardgrass [4]; 500 g ai/ha, postemergence
  Plant response rating, Barnyardgrass: 70
Barnyardgrass [4]; Postemergence, 125 g ai/ha
  Plant response rating, Barnyardgrass: 50
ryegrass, Italian [5]; 500 g ai/ha, postemergence
  Plant response rating, Ryegrass, Italian: 100
ryegrass, Italian [5]; Postemergence, 125 g ai/ha
  Plant response rating, Ryegrass, Italian: 60
Ragweed [6]; [24]
  Ragweed plant response rating: 40
Ragweed [6]; [25]
  Plant response rating, Ragweed: 0
rice
  Plant response rating, Rice (Flood): 15
Wheat [7]; 500 g ai/ha, postemergence
  Plant response rating, Wheat: 50
Wheat [7]; Postemergence, 125 g ai/ha
  Plant response rating, Wheat: 40
Barnyardgrass [8]
  Plant response rating, Barnyardgrass (Flood): 45
galium; 500 g ai/ha, postemergence
  Plant response rating, Galium: 100
galium; Postemergence, 125 g ai/ha
  Plant response rating, Galium: 100
ducksalad
  Plant response rating, Ducksalad (Flood): 10
Ragweed [9]; 500 g ai/ha, postemergence
  Plant response rating, Ragweed: 30
Ragweed [9]; Postemergence, 125 g ai/ha
  Plant response rating, Ragweed: 0
Kochia [10]; 500 g ai/ha, postemergence
  Plant response rating, Kochia: 80
Kochia [10]; Postemergence, 125 g ai/ha
  Plant response rating, Kochia: 50
Barnyardgrass [11]; [24]
  Barnyardgrass plant response rating: 100
Barnyardgrass [11]; [25]
  Plant response rating, Barnyardgrass: 90
oat, wild [12]; 500 g ai/ha, postemergence
  Plant response rating, Oat, Wild: 80
oat, wild [12]; Postemergence, 125 g ai/ha
  Plant response rating, Oat, Wild: 40
Corn [13]; 500 g ai/ha, postemergence
  Plant response rating, Corn: 80
Corn [13]; Postemergence, 125 g ai/ha
  Plant response rating, Corn: 70
Soybean [14]; [24]
  Soybean plant response rating: 100
Soybean [14]; [25]
  Plant response rating, Soybean: 30
sedge, umbrella
  Plant response rating, Sedge, Umbrella (Flood): 45
foxtail, giant [15]; [24]
  Foxtail, Giant plant response rating: 100
foxtail, giant [15]; [25]
  Plant response rating, Foxtail, Giant: 100
pigweed, palmer [16]; 500 g ai/ha, postemergence
  Plant response rating, Pigweed, Palmer: 60
pigweed, palmer [16]; Postemergence, 125 g ai/ha
  Plant response rating, Pigweed, Palmer: 20
oat, wild [17]; [24]
  Oat, Wild plant response rating: 90
oat, wild [17]; [25]
  Plant response rating, Oat, Wild: 50
horseweed; 500 g ai/ha, postemergence
  Plant response rating, Horseweed: 20
horseweed; Postemergence, 125 g ai/ha
  Plant response rating, Horseweed: 0
Corn [18]; [24]
  Corn plant response rating: 80
Corn [18]; [25]
  Plant response rating, Corn: 30
Wheat [19]; [24]
  Wheat plant response rating: 90
Wheat [19]; [25]
  Plant response rating, Wheat: 30
Blackgrass [20]; 500 g ai/ha, postemergence
  Plant response rating, Blackgrass: 90
Blackgrass [20]; Postemergence, 125 g ai/ha
  Plant response rating, Blackgrass: 60
ryegrass, Italian [21]; [24]
  Ryegrass, Italian plant response rating: 100
ryegrass, Italian [21]; [25]
  Plant response rating, Ryegrass, Italian: 90
Kochia [22]; [24]
  Kochia plant response rating: 90
Kochia [22]; [25]
  Plant response rating, Kochia: 70
pigweed, palmer [23]; [24]
  Pigweed, Palmer plant response rating: 90
pigweed, palmer [23]; [25]
  Plant response rating, Pigweed, Palmer: 50
